Experimental data published in ChEMBL document CHEMBL1201862, “PubChem BioAssay data set” (2004).
The source made the active and inactive calls.

What was measured:
[1] = molecular target: Scavenger receptor class B member 1 (Mus musculus, UniProt Q61009); assay: mouse SR-BI DiI-HDL uptake blockers – ldlA[mSR-BI] cells, fluorescence, cherry pick, dose response (AID 493194); assay type: functional, cell-based;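 note: cellular uptake of fluorescent DiI-labeled HDL measured as cell fluorescence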
[2] = molecular target: Heat shock protein HSP 90-alpha (Homo sapiens, UniProt P07900); assay type: functional, organism-based
[3] = molecular target: T1, Sphingosine 1-phosphate receptor 4 (Homo sapiens, UniProt O95977); assay: Late stage fluorescence dose response cell-based screening assay for antagonists of the Sphingosine 1-Phosphate Receptor 4 (S1P4). [Related pubchem assays: 1524 (Confirmation screen (S1P4 antagonists).), 1510 (Primary screen (S1P4 antagonists).), 1853 (Summary AID (S1P4 antagonists).), 1692 (Dose response screen (S1P4 antagonists).)]; assay type: functional
T1 sequence (O95977 whole entry): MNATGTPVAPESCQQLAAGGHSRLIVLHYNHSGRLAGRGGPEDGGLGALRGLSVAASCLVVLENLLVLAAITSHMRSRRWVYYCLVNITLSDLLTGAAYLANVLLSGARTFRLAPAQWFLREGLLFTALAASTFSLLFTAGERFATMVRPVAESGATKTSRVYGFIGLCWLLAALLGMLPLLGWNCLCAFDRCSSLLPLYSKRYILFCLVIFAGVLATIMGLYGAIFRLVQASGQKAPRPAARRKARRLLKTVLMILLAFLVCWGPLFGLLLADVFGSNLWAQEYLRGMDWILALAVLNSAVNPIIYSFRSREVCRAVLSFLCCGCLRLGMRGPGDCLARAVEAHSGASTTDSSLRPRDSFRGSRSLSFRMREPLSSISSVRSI

[4] = molecular target: T2, Heat shock factor protein 1 (Mus musculus, UniProt P38532); assay: decrease of HSF1-responsive luciferase luminescence – cell-based, NIH3T3, dose retest, confirmation (AID 2382); assay type: functional;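 note: NIH3T3 fibroblasts with HSF1-driven luciferase reporter stressed by proteasome inhibitor MG132; luminescence from HSF1-driven luciferase expression after 8 hours of MG132 stress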
T2 sequence (P38532 whole entry): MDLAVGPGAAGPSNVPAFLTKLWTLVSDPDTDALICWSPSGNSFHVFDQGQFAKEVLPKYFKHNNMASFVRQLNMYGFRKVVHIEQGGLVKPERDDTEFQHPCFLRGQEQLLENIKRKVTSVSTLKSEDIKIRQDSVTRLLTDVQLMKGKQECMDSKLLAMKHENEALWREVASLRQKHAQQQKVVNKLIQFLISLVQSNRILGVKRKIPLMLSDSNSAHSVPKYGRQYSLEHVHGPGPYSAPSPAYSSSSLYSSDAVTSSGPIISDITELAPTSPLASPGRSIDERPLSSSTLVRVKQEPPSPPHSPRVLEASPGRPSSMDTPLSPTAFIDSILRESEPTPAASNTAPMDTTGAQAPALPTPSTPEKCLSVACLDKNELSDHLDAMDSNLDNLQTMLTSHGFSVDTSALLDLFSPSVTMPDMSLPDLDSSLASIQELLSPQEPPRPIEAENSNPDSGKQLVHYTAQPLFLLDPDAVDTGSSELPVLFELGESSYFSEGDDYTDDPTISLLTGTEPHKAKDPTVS

[5] = molecular target: Beta-galactosidase (Escherichia coli, UniProt Q8VNN2); assay: detection-enzyme interference by beta-gal modulators – biochemical, E. coli enzyme, set 3, artefact control for CCR6 antagonist project, dose response (AID 504712); assay type: functional
[6] = microbe, parasite or virus in culture; assay type: functional; settings: Mycobacterium tuberculosis
[7] = molecular target: Neurotensin receptor type 1 (Homo sapiens, UniProt P30989); assay type: functional;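 note: Image-based confirmatory dose-response assay measuring agonist activity at NTR1; NTR1-expressing U2OS osteosarcoma cells imaged for beta-arrestin GFP spot formation; agonist potency where compounds increase beta-arrestin recruitment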
[8] = molecular target: T3, Streptokinase A (Streptococcus pyogenes serotype M1, UniProt P10520); assay: viability-normalized secreted streptokinase activity reduction – plasminogen activation absorbance, OD405, dose response (AID 1914); assay type: functional, Streptococcus pyogenes M1 GAS;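 note: secreted streptokinase activity via plasminogen activation per viability signal from cell pellet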
T3 sequence (P10520 whole entry): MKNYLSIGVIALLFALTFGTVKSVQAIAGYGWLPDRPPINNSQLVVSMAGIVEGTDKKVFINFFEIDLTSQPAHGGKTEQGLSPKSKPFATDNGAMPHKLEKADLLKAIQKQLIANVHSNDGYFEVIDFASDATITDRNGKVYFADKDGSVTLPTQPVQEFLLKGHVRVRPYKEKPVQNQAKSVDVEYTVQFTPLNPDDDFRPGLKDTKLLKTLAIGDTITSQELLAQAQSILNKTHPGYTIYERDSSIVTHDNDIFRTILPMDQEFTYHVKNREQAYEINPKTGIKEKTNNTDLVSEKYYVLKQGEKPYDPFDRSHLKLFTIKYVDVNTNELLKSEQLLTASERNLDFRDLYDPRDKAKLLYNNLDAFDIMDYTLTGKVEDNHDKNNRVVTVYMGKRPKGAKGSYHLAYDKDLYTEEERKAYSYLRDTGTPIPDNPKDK

[9] = molecular target: Sphingosine 1-phosphate receptor 1 (Homo sapiens, UniProt P21453); assay type: functional;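 note: Tango beta-arrestin reporter U2OS cells stimulated with S1P near its EC80; inhibitor potency meaning antagonism of receptor activation by the natural agonist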
[10] = non-specific 3'UTR reporter inhibition in Clone20-Shn3RL – cell-based, Renilla luciferase, cherry-picked, counter-screen for Shn3 inhibitor project, dose response (AID 624133); assay type: functional
[11] = test system: Streptococcus; assay: GAS UMAA2166 growth inhibition – luminescence, BacTiterGlo, counter-screen for streptokinase expression inhibitor project, dose response (AID 1915); assay type: functional, organism-based;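 note: potency for reduction of bacterial viability or growth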
[12] = test system: Streptococcus sp. 'group A'; assay: Streptococcus pyogenes SK(-)GAS viability under kanamycin – luminescence, BacTiterGlo, confirmation, counter-screen for streptokinase expression inhibitor project, dose response (AID 1900); assay type: functional, organism-based
[13] = reduction of Shn3 3'UTR-driven luciferase in osteoblasts – cell-based, Clone20 osteoblasts, firefly luciferase, cherry-picked, dose response (AID 624132); assay type: functional;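 note: firefly luciferase luminescence from reporter carrying the Shn3 3'UTR in osteoblasts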
[14] = loss of viability in HepG2 cells – cell-based, CellTiter-Glo, cherry-picked, cytotoxicity control for Shn3 inhibitor project, dose response (AID 624134); assay type: functional
[15] = molecular target: T1, Sphingosine 1-phosphate receptor 4; assay: Fluorescence dose response cell-based high throughput screening assay for antagonists of the Sphingosine 1-Phosphate Receptor 4 (S1P4). [Related pubchem assays: 1524 (Confirmation in triplicates.), 1510 (Primary screen.)]; assay type: functional
[16] = molecular target: Beta-lactamase (Salmonella choleraesuis (strain SC-B67), UniProt Q5J463); assay: Epi-absorbance-based counterscreen for selective VIM-2 inhibitors: dose response biochemical high throughput screening assay to identify inhibitors of TEM-1 serine-beta-lactamase.
[17] = molecular target: Cyclin-dependent kinase 5/CDK5 activator 1 (Homo sapiens, UniProt Q00535); assay: blockade of human CDK5 activity – biochemical, cherry-picked samples, set 2, dose response (AID 504545)
[18] = molecular target: T4, Beta-lactamase (Pseudomonas aeruginosa, UniProt Q79MP6); assay: […] counterscreen for selective VIM-2 inhibitors: dose response biochemical high throughput screening assay to identify inhibitors of IMP-1 metallo-beta-lactamase.
[19] = molecular target: T4, Beta-lactamase; assay: inhibition of IMP-1 beta-lactamase activity – biochemical, epi-absorbance, selectivity assay for VIM-2 inhibitor project, dose response (AID 1920)
[20] = molecular target: T5, Histone-lysine N-methyltransferase NSD2 (Homo sapiens, UniProt O96028); assay type: biochemical
T5 sequence (O96028 whole entry): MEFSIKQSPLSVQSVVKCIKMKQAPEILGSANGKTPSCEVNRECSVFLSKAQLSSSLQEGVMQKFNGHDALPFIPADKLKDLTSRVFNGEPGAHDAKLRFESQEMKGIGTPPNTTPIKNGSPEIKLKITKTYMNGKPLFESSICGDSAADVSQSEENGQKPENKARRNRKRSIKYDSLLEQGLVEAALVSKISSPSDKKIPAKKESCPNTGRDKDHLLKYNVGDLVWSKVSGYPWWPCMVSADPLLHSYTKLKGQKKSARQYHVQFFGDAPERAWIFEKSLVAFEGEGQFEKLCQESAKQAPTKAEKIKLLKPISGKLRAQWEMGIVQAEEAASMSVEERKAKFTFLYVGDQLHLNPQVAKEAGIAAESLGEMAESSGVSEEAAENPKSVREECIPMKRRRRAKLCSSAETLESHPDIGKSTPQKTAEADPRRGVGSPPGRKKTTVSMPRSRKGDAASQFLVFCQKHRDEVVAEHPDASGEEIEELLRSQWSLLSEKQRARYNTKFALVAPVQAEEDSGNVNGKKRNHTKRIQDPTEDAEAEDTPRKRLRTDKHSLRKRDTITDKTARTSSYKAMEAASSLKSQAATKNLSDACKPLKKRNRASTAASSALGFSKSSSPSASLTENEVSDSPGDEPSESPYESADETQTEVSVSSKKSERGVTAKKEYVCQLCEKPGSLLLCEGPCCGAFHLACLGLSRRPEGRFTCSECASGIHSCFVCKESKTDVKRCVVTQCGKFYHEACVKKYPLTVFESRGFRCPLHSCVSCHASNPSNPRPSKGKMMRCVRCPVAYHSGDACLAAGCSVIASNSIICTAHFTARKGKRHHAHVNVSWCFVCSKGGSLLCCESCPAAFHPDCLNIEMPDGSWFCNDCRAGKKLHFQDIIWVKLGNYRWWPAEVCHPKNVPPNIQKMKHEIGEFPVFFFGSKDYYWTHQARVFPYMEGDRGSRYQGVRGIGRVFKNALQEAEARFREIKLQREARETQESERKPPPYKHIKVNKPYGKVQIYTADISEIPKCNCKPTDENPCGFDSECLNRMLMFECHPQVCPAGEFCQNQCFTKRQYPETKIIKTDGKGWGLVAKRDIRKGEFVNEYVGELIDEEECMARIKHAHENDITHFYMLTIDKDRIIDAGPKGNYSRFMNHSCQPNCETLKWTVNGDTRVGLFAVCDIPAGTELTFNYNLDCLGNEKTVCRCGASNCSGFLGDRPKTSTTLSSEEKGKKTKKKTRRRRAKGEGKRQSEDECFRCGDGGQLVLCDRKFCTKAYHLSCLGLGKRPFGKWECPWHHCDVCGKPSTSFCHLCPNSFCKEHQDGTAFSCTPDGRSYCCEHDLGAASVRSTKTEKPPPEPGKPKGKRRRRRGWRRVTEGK

[21] = molecular target: Peroxisome proliferator-activated receptor gamma/Nuclear receptor corepressor 2 (Homo sapiens, UniProt P37231+Q9Y618); assay type: functional
[22] = molecular target: Ras and Rab interactor 1/Tyrosine-protein kinase ABL1 (Homo sapiens, UniProt P00519+Q13671); assay type: functional;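 note: biochemical TR-FRET dose-response test measuring inhibition of binding between Rin1 and Abl proteins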
[23] = molecular target: Photoreceptor-specific nuclear receptor (Homo sapiens, UniProt Q9Y5X4); assay type: functional;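 note: potency for compounds that break the NR2E3 corepressor complex and count as activators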
[24] = Luminescence Cell-Based Dose Retest to Confirm Inhibitors of Cancer Stem Cells. [Related pubchem assays (depositor defined):AID2717, AID2721]; assay type: functional; settings: Homo sapiens
[25] = viability of uninfected HEp-2 cells – cell-based, HTS, cytotoxicity control for RSV inhibitor project, dose response (AID 2410); assay type: functional; settings: human respiratory syncytial virus
[26] = molecular target: Cytochrome P450 2C9 (Homo sapiens, UniProt P11712); settings: Potency
[27] = molecular target: Cytochrome P450 3A4 (Homo sapiens, UniProt P08684); settings: Potency;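 note: confirmatory qHTS run detecting inhibitors and substrates of CYP3A4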
[28] = molecular target: T6, Calpain-2 catalytic subunit (Sus scrofa, UniProt P43367); assay: m-calpain protease blockers, concentration series – biochemical, fluorogenic peptide substrate, dose response (AID 1420); assay type: functional
T6 sequence (P43367 whole entry): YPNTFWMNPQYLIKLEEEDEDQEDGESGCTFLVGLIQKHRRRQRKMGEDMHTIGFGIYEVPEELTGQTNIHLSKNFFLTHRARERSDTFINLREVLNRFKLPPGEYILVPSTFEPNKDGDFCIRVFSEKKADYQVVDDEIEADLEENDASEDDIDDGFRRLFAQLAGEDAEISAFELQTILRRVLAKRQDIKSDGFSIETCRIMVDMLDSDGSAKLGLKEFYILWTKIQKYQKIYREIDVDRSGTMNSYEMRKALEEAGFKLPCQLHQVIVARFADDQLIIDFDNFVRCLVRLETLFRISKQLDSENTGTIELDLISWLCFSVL

[29] = molecular target: T7, Voltage-dependent T-type calcium channel subunit alpha-1H (Homo sapiens, UniProt O95180); assay: Inhibitors of T-Type Calcium Channels. [Related pubchem assays (depositor defined):AID449739, AID463087, AID489005, AID493041, AID504579, AID504584, AID504619, AID504628]; assay type: functional
[30] = molecular target: T7, Voltage-dependent T-type calcium channel subunit alpha-1H; assay type: functional

T7 sequence (O95180 whole entry): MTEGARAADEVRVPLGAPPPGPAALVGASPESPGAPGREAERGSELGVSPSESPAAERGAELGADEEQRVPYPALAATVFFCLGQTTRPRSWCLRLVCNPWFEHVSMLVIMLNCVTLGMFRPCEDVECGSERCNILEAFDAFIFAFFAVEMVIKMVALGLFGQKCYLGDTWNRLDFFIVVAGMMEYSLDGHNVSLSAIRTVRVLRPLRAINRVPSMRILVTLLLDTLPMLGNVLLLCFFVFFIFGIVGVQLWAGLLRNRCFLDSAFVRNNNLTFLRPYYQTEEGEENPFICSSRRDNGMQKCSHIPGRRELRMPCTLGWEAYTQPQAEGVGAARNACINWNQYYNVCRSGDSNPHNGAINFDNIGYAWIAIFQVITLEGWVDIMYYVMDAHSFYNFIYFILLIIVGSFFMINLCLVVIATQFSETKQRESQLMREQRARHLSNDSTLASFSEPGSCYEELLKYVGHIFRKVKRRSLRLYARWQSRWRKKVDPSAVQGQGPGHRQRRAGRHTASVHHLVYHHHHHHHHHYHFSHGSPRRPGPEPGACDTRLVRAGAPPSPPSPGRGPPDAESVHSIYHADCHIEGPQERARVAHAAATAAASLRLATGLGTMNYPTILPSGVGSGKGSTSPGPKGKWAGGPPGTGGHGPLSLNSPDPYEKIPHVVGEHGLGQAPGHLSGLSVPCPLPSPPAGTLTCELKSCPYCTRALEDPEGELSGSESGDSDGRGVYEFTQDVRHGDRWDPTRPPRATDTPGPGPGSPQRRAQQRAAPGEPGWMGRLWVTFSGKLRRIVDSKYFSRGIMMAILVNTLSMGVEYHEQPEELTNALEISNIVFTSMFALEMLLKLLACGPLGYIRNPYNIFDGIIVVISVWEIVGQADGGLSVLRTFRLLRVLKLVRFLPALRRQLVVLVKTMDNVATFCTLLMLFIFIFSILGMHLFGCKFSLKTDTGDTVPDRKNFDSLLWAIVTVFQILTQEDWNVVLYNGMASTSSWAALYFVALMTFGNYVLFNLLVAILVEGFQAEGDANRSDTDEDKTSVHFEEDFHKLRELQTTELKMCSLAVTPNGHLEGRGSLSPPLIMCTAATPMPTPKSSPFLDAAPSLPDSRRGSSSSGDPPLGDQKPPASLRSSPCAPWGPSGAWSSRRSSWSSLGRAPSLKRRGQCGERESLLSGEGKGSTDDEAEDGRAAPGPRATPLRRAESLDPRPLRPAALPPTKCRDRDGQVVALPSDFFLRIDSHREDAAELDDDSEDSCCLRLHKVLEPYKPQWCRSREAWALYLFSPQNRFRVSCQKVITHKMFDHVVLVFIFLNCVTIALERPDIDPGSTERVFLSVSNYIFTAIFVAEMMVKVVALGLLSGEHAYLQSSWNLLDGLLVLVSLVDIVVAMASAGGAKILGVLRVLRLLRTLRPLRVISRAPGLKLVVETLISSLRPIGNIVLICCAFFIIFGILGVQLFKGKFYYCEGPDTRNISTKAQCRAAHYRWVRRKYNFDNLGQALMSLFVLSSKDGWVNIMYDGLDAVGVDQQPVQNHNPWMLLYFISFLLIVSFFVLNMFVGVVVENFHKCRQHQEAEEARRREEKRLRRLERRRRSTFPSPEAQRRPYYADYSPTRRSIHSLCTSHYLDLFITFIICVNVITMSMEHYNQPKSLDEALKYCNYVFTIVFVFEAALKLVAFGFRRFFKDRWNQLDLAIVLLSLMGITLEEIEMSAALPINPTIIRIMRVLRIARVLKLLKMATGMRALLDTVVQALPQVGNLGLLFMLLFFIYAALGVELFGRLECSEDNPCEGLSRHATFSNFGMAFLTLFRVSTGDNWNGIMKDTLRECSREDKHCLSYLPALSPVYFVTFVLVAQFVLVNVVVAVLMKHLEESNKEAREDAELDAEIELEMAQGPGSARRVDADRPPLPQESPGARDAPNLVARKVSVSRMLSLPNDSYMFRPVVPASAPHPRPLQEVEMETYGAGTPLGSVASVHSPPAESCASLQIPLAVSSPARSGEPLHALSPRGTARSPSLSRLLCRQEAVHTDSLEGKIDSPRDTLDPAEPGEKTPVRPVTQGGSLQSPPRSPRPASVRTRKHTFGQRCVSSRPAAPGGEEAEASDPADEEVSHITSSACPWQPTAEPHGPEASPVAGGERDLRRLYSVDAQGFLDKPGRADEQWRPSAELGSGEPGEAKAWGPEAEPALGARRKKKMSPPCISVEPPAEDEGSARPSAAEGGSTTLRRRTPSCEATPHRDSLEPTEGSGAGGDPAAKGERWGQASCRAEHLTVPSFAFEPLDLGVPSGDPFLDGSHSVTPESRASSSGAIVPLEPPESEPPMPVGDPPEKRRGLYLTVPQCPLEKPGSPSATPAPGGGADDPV
T4 sequence (Q79MP6 whole entry): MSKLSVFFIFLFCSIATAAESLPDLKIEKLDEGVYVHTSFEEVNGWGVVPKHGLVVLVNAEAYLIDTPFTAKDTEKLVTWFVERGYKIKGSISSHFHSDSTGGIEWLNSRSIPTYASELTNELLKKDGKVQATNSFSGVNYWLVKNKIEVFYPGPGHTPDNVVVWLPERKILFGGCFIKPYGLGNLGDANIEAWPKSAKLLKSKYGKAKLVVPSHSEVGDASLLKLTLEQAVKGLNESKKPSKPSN
Chain of Scavenger receptor class B member 1 (Q61009 whole entry): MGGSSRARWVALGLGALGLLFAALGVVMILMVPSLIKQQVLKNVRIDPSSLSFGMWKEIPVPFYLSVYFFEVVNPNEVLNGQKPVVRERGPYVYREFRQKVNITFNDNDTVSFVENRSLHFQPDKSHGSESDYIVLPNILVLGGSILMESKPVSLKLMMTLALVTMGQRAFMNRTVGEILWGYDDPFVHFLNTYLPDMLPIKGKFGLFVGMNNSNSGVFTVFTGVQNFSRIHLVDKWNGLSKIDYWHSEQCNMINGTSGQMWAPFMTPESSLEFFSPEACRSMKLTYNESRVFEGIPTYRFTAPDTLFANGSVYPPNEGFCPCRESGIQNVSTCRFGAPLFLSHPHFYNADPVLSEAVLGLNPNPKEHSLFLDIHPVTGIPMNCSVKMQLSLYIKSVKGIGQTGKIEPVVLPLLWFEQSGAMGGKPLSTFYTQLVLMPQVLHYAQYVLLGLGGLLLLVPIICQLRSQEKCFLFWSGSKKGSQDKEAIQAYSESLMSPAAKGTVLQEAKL
Chain of Neurotensin receptor type 1 (P30989 whole entry): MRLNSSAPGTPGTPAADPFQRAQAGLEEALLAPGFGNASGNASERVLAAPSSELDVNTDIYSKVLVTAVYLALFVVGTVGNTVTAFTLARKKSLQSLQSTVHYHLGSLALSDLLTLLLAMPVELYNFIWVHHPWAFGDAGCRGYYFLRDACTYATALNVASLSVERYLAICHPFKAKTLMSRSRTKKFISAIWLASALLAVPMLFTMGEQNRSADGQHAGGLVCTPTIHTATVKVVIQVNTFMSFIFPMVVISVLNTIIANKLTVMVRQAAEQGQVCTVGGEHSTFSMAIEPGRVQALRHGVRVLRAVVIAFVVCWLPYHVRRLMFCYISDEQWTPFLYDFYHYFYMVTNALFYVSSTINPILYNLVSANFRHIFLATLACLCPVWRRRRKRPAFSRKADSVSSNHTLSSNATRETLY
Chain of Cytochrome P450 2C9 (P11712 whole entry): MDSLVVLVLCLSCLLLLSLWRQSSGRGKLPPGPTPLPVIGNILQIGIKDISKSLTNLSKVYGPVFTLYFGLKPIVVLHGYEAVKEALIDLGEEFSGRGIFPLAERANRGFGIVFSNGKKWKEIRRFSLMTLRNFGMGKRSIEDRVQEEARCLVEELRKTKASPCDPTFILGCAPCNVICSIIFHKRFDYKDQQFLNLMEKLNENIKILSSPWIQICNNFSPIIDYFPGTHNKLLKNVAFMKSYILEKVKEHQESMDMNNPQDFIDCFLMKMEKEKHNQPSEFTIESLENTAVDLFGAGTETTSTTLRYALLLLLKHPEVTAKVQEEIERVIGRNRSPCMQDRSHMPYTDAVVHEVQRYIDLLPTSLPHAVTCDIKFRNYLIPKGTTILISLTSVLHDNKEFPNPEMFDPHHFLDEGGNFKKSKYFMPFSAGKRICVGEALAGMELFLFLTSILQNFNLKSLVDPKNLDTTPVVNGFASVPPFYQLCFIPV
Chain of Cyclin-dependent kinase 5/CDK5 activator 1 (Q00535 whole entry): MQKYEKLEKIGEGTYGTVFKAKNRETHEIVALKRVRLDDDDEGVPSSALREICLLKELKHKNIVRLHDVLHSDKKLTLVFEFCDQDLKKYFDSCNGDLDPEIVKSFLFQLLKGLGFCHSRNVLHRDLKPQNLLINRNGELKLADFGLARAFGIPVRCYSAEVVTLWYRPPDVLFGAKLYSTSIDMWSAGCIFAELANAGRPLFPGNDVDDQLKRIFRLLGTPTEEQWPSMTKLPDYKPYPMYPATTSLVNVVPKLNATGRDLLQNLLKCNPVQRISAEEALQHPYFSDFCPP
Chain of Cyclin-dependent kinase 5/CDK5 activator 1 (Q15078 whole entry, further chain): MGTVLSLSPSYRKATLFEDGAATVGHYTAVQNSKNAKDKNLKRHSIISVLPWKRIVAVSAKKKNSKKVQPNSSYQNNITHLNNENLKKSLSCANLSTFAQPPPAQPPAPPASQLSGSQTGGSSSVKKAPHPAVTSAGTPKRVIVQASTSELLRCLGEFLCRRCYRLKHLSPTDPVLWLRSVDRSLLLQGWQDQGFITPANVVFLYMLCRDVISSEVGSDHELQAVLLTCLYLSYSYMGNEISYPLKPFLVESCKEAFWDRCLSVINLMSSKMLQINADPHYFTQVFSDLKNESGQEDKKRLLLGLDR
Chain of Sphingosine 1-phosphate receptor 1 (P21453 whole entry): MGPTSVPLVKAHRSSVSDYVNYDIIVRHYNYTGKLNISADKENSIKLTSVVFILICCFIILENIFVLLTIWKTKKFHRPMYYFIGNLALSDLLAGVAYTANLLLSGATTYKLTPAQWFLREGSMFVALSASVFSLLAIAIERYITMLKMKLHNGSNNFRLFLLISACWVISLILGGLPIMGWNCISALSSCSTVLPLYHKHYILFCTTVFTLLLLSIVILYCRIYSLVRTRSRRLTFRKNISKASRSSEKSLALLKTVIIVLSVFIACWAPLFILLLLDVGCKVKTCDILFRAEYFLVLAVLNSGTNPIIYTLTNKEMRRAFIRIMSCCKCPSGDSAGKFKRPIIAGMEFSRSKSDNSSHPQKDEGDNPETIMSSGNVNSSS

CC(C)OCCCNC(=O)c1ccc(C2SCC(=O)N2Cc2ccco2)cc1 (stereo unspecified)
AC50 [1]: 1 µM (active)

CCOc1cc(/C=C\[N+](=O)[O-])ccc1OCC(=O)Nc1ccccc1C
AC50 [2]: 3.66 µM (active)
IC50 [3]: 1.8 µM (not active)
EC50 [4]: 5.09 µM (active)
IC50 [5]: > 66.6 µM (inactive)
CC50 [6]: > 40 µM (active)
EC50 [7]: 9.86 µM (active)
EC50 [8]: 4.73 µM (active)
IC50 [9]: 18.8 µM (not active)
AC50 [10]: 4.63 µM (active)
EC50 [11]: 12.3 µM (active)
EC50 [12]: 7.34 µM (active)
AC50 [13]: < 0.26 µM (active)
AC50 [14]: 22.5 µM (active)
IC50 [15]: 0.913 µM (active)

O=C1Nc2cc(C(=O)N3CCC(N4CCCCC4)CC3)ccc2S/C1=C\c1ccccc1
IC50 [16]: > 59.6 µM (inactive)
AC50 [17]: 21.2 µM (active)
IC50 [18]: > 59.6 µM (inactive)
IC50 [19]: > 59.6 µM (inactive)

Oc1cc(OCc2ccccc2)ccn1
AC50 [20]: 11.5 µM (active)
IC50 [21]: 16.6 µM (not active)
IC50 [22]: 0.0261 µM (active)
IC50 [23]: > 39.8 µM (not active)

COc1ccc(-n2sc3c(c2=S)-c2cc(OC)ccc2NC3(C)C)cc1
AC50 [24]: 2.53 µM (active)
AC50 [1]: 16.1 µM (active)
CC50 [25]: 18.4 µM (active)

COc1ccc(OC)c(-c2ccccc2/C=N/NS(=O)(=O)c2ccc(C)cc2)c1
AC50 [26]: 7.94 µM (inconclusive)
AC50 [27]: 3.16 µM (inconclusive)

CC(C)C[C@H](NC(=O)c1[nH]cnc1C(=O)N[C@@H](C)c1ccccc1)C(=O)OCc1ccccc1
EC50 [7]: 5.4 µM (active)
EC50 [8]: > 150 µM (inconclusive)
IC50 [28]: 5.23 µM (not active)
EC50 [11]: 40.7 µM (active)
EC50 [12]: 0.656 µM (active)

CC(C)(C)n1nnnc1CN1CCN(C(c2ccccc2)c2ccccc2)CC1
EC50 [29]: 7.64 µM (active)
EC50 [30]: 6.42 µM (active)

C/C=C/OC(=O)NC(c1ccccc1)[C@@]1(C(=O)OCC)CCCC1=O (stereo partly specified)
AC50 [26]: 3.98 µM (inconclusive)
